Reference: US20220298196A1, “NOVEL COMPOUND DERIVED FROM WATERMELON, AND COMPOSITION USING SAME” (HAGIHARA FARM PRODUCTION INSTITUTE CO., LTD., priority 2019, published 2022)

Columns and labels:
MMP-1 = test: Inhibition of MMP-1 protein expression after UV-B irradiation, western blotting; format: cell-based, human; settings: NHDF cells, 50 or 100 μM, precultured 24 hours, UV-B 25 mJ/cm2, 24 hours after irradiation
Protocol: Normal human dermal fibroblasts-Neo (NHDF, hereinafter, simply referred to as “NHDF cells”) were adjusted at 1×10^5 cells/mL and inoculated in a 12-well multi-well plate in a volume of 1 mL each and cultured to a confluent state. Subsequently, test samples (a final concentration of 50 or 100 μM (of each solvent-fractionated matter) (of each isolated substance)) were added to the cells and the cells were precultured for 24 hours. Subsequently, after rinsing with PBS twice, the cells were irradiated with UV-B with a light intensity of 25 mJ/cm^2.
The cells irradiated with ultraviolet rays were subjected to SDS-PAGE after 24 hours, and then western blotting was performed by transferring to PVDF (polyvinylidene difluoride), thereby detecting protein expression of MMP-1.
Referring to FIG. 3(a), in two columns in an upper part of the photograph, an upper column indicates the presence/absence of UV irradiation (“+”: irradiated with UV, “−”: not irradiated) and a lower column indicates samples (no sample indicated by “−”, 4G3HBE, and 4GBE). Further, a left part of the photograph indicates detection targets (MMP-1 and β-Actin) along a vertical direction. β-Actin is measured as a control.

NHDF cells = test: Amount of intracellular reactive oxygen species (ROS), CM-H2DCFDA; format: cell-based, human; settings: 50 μM, precultured 24 hours, UV-B 25 mJ/cm2, 1 hour, control 1%, UV-B alone about 1.7%
Excerpt: In the studies of “Antioxidative effect”, it was confirmed that 4G3HBE and 4GBE had approximately half of the antioxidation activity of vitamin C. On the other hand, according to “Inhibition of MMP-1 expression” and “Activation of signaling molecules”, it was thought that attenuation of the oxidative stress signal was induced by removal of ROS, generated by UV-B irradiation, by the antioxidation ability of 4G3HBE and 4GBE. Thus, the amount of the intracellular reactive oxygen species (ROS) was measured using CM-H2DCFDA, an indicator of ROS.
The NHDF cells (1.0×10^5 cells/mL) were cultured to a confluent state. Subsequently, 4G3HBE and 4GBE were each added to the cells at a final concentration of 50 μM, followed by preculturing for 24 hours. CM-H2DCFDA serving as a cell-permeable indicator of reactive oxygen was added to the cells at a final concentration of 10 μM one hour before ultraviolet ray irradiation. Subsequently, the cells were irradiated with UV-B with a light intensity of 25 mJ/cm^2 and further cultured for 1 hour in an incubator. Then, fluorescence was measured with an excitation wavelength of 495 nm and a fluorescent wavelength of 530 nm using a multimode microplate reader, Varioscan LUX. […]

NF-κB = test: Activation (phosphorylation) of signaling molecule after UV-B irradiation, western blotting; format: cell-based, human; settings: NHDF cells, precultured 24 hours, UV-B 25 mJ/cm2
Protocol: (§1) Since activation of p38MAP kinase, SAPK/JNK, and NF-κB involving in an inflammatory response is deeply involved in the induction and production of MMPs after UV-B irradiation, activation (via phosphorylation) of these signaling molecules was studied by the western blotting method.
(§2) More specifically, the NHDF cells were precultured for 24 hours in the same manner as described above, rinsed with PBS twice, irradiated with UV-B with a light intensity of 25 mJ/cm^2, and subjected to western blotting to examine phosphorylation of p38MAP, SAPK/JNK, and NF-κB.
(§3) The data were shown by average±standard error (n=3). The comparison between multiple groups was performed by using the Tukey-Kramer test method (p<0.05).
(§4) Referring to FIG. 4(b), the horizontal axis of the graph indicates conditions of the samples, that is, the presence/absence of UV-B irradiation (“+”: irradiated with UV, “−”: not irradiated), the presence/absence of 4G3HBE (“+”: presence, “−”: absence), and the presence/absence of 4GBE (“+”: presence, “−”: absence). Further, the vertical axis indicates changes in phosphorylation, that is, a relative ratio of phosphorylation activity. Referring to FIG. 4(b), p38MAP, SAPK/JNK, and phosphorylated NF-κB increased by UV-B irradiation. However, the expression of the signaling molecules was suppressed by the presence of 4G3HBE or 4GBE.

SAPK/JNK = test: as above; format: cell-based, human; settings: NHDF cells, precultured 24 hours, UV-B 25 mJ/cm2
Protocol: as §1, §2, §3, §4

p38MAP kinase = test: as above; format: cell-based, human; settings: NHDF cells, precultured 24 hours, UV-B 25 mJ/cm2
Protocol: as §1, §2, §3, §4

[1] = DPPH radical scavenging rate (antioxidative effect); format: biochemical; settings: 200 μM DPPH, 30 minutes, absorbance at 520 nm; compared with L-ascorbic acid
Protocol: In order to evaluate the antioxidation ability of the two novel compounds thus isolated, 200 μM DPPH (1,1-diphenyl-2-picrylhydrazyl) dissolved in 50% ethanol was prepared as a reagent. In the preparation procedure of the reagent, DPPH was first dissolved in ethanol, and an equal amount of Milli-Q water was then added to the mixture. Then, the resulting mixture was filtered with a 0.45 μm syringe filter to remove undissolved matters.
A sample solution in a volume of 150 μL and the 200 μM DPPH ethanol solution in a volume of 150 μL were mixed well in a 96-well plate. After the plate was left standing still for 30 minutes, the absorbance at 520 nm was measured using a microplate reader (Thermo Fisher Scientific, Multiscan-LUX). The radical scavenging rate was obtained using the formula (F1).
Note that in the formula, RD (%) represents the radical scavenging rate (%). ODblank520nm represents the absorbance at 520 nm of the reagent (DPPH) to which each of the sample solutions is not added, while ODsample520nm represents the absorbance at 520 nm of the reagent (DPPH) to which each of the sample solutions is added and mixed, followed by being left standing still for 30 minutes.
FIG. 2 is a graph of the result with a photograph of a state of the microplate. […]

| Structure (SMILES) | expression of MMP-1 (protein, detection intensity) (MMP-1) | intracellular ROS level (NHDF cells) | activation of NF-κB (phosphorylation) (NF-κB) | activation of SAPK/JNK (phosphorylation) (SAPK/JNK) | activation of p38MAP kinase (phosphorylation) (p38MAP kinase) | antioxidative activity (radical scavenging rate) relative to vitamin C [1] |
| --- | --- | --- | --- | --- | --- | --- |
| CC(C)(O)C(OC(=O)/C=C/c1ccc(O)c(O)c1)C(=O)OCc1ccc(O[C@@H]2O[C@H](CO)[C@@H](O)[C@H](O)[C@H]2O)c(O)c1 (stereo partly drawn) [4G3HBE, 2-caffeoyl-3-hydroxy-3-methylbutyric 4′-β-D-glucopyranosyloxy-3′-hydroxybenzyl ester] | clearly suppressed the expression of MMP-1 | about 1.4% | significantly down-regulated | significantly down-regulated | significantly down-regulated | approximately half that of vitamin C |
| CC(C)(O)C(OC(=O)/C=C/c1ccc(O)c(O)c1)C(=O)OCc1ccc(O[C@@H]2O[C@H](CO)[C@@H](O)[C@H](O)[C@H]2O)cc1 (stereo partly drawn) [4GBE, 2-caffeoyl-3-hydroxy-3-methylbutyric 4′-β-D-glucopyranosyloxybenzyl ester] | clearly suppressed the expression of MMP-1 | about 1.4% | significantly down-regulated | significantly down-regulated | significantly down-regulated | approximately half that of vitamin C |
